One may read the IC50 as the point on the concentration scale where inhibition reaches its midpoint.

Consider one compound from patent publication US20140066431A1, “Benzoxazepines as Inhibitors of PI3K/mTOR and Methods of Their Use and Manufacture” (Exelixis, Inc., priority 2010, published 2014).

Like-named read-outs stand apart in the source and are kept apart here.

One assay deals with mTOR/GbL/Raptor (mTORC1) (Homo sapiens, UniProt P42345). The assay can be described thus: mTOR/GbL/Raptor (mTORC1) ELISA assay. In kind it is biochemical. How it is done: The measurement of mTORC1 enzyme activity was performed in an ELISA assay format following the phosphorylation of 4E-BP1 protein. All experiments were performed in the 384-well format. Generally, 0.5 μL DMSO containing varying concentrations of the test compound was mixed with 15 μL enzyme solution. Kinase reactions were initiated with the addition of 15 μL of substrates-containing solution. The assay conditions were as follows; 0.2 nM mTORC1, 10 μM ATP and 50 nM NHis-tagged 4E-BP1 in 20 mM Hepes, pH 7.2, 1 mM DTT, 50 mM NaCl, 10 mM MnCl2, 0.02 mg/mL BSA, 0.01% CHAPS, 50 mM β-glycerophosphate. Following an incubation of 120 minutes at ambient temperature, 20 μL of the reaction volume was transferred to a Ni-Chelate-coated 384-well plate. The binding step of the 4E-BP1 protein proceeded for 60 minutes, followed by washing 4 times each with 50 μL of Tris-buffered saline solution (TBS). Anti-phospho-4E-BP1 rabbit-IgG (20 μL, 1:5000) in 5% BSA-TBST (0.2% Tween-20 in TBS) was added and further incubated for 60 minutes. Incubation with a secondary HRP-tagged anti-IgG was similarly performed after washing off the primary antibody (4 washes of 50 μL). Following the final wash step with TBST, 20 μL of SuperSignal ELISA Femto (Pierce Biotechnology) was added and the luminescence measured using an EnVision plate reader.
On the technique in general: An ELISA detects its analyte on a solid surface through an enzyme-linked reagent.

The target of the next assay is PI3Kβ (Homo sapiens, UniProt P42338). The assay can be described thus: PI3K biochemical assay, PI3Kβ. As to the method: PI3Kα activity is measured as the percent of ATP consumed following the kinase reaction using luciferase-luciferin-coupled chemiluminescence. Reactions were conducted in 384-well white, medium binding microtiter plates (Greiner). Kinase reactions were initiated by combining test compounds, ATP, substrate (PIP2), and kinase in a 20 μL volume in a buffer solution. The standard PI3Kalpha assay buffer is composed 50 mM Tris, pH 7.5, 1 mM EGTA, 10 mM MgCl2, 1 mM DTT and 0.03% CHAPS. The standard assay concentrations for enzyme, ATP, and substrate are 1.5 nM, 1 μM, and 10 μM, respectively. The reaction mixture was incubated at ambient temperature for approximately 2 h. Following the kinase reaction, a 10 μL aliquot of luciferase-luciferin mix (Promega Kinase-Glo) was added and the chemiluminescence signal measured using a Victor2 plate reader (Perkin Elmer). […] Substituting PI3Kα with PI3Kβ, PI3Kγ, or PI3Kδ, the inhibitory activity of the compounds for the other isoforms of I3K were measured.

Assay [1] relates to PC3 (PTEN null) cellular model. The assay can be described thus: pAKT (T308) ELISA assay, PC3. The settings on record: Homo sapiens; IGF1 stimulation. In kind it is cell-based. How it is done: Cells were incubated at 37° C., 5% CO2 for 48 h (except MDA-MB-453 cells which were cultured in the absence of CO2). Compounds were serially diluted in DMSO and subsequently diluted in serum-free DMEM. Test compounds were added to cells in serum-free DMEM at a final concentration of 0.3% DMSO and incubated for 3 h. Cells were lysed with 130 μL of ice-cold RIPA lysis buffer (50 mM Tris-HCl, pH 7.5; 0.5% sodium deoxycholic acid; 1% Triton X-100; 0.1% SDS; 150 mM NaCl) with protease and phosphatase inhibitors (1 mM EDTA, 1 mM NaF, 20 mM β-glycerophosphate, 1 mM Na-orthovanadate, Complete-Mini EDTA-free, Roche, 11836170001, and Phosphatase Inhibitor Cocktail I, Sigma, P2850), directly in 96-well plates. Cells were lysed on ice for 60-120 min at 4° C. The supernatants were added directly to capture ELISA plates previously pre-coated with rabbit anti-AKT capture antibody. ELISA assays for pAKT(T308) and total AKT were performed with the pAKT(T308) ELISA kit (Cell Signaling Technology, 7144) and AKT1 ELISA kit (Cell Signaling Technology, 7142). For the pAKT(T308) ELISA, 85 μL of cell lysate was added to each well. For the total AKT1 ELISA, 15 μL of cell lysate and 85 μL of Starting Block buffer (Pierce, 37543) were added to each well.

PI3Kβ, sequence (P42338 whole entry): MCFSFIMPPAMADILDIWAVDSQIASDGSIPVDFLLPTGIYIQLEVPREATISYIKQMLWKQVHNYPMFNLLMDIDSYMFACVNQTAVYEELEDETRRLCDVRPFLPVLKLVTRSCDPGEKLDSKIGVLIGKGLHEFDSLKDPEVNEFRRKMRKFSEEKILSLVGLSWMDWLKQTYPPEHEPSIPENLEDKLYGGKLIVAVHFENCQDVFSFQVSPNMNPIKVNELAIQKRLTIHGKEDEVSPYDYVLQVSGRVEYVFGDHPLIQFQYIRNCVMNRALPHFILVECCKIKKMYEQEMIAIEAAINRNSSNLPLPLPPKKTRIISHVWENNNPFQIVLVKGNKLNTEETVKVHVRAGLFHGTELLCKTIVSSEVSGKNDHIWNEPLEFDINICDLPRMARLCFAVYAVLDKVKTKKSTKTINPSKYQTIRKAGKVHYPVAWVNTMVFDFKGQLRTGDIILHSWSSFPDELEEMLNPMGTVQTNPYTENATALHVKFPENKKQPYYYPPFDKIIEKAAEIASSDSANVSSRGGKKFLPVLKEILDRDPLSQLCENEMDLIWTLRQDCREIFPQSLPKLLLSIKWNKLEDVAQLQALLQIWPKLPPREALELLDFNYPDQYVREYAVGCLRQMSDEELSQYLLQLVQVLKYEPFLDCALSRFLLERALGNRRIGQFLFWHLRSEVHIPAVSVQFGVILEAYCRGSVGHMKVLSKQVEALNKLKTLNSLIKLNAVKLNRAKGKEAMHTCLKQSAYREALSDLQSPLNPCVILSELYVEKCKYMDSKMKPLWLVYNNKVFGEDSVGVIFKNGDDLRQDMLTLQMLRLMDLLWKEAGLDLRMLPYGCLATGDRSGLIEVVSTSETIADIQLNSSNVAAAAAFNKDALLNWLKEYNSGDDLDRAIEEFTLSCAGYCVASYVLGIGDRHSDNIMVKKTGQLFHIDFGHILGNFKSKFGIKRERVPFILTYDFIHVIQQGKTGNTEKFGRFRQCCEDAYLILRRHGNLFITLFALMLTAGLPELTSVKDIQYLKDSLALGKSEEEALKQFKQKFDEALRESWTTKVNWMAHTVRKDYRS
PI3Kβ, sequence (P27986 whole entry partner): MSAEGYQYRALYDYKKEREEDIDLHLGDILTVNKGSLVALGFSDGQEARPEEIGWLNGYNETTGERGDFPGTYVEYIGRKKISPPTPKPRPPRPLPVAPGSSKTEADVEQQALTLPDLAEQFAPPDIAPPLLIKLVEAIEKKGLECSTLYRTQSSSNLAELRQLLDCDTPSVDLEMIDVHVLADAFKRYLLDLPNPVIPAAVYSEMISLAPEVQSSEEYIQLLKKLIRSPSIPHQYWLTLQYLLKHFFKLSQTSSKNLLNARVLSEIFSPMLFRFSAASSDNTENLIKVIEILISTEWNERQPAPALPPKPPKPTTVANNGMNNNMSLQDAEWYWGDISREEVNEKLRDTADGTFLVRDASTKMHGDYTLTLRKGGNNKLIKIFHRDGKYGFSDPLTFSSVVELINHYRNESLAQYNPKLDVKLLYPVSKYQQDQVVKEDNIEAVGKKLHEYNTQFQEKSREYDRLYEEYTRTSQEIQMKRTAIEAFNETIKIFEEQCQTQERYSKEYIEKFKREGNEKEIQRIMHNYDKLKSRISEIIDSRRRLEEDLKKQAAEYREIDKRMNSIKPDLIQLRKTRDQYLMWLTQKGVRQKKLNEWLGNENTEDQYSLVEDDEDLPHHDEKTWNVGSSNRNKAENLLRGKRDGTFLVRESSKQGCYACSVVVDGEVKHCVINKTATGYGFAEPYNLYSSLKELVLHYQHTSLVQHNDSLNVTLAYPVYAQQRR

As for `Cc1cc(C(C)Nc2ccccc2)c2nc(N3CCOCC3)cc(=O)n2c1` (stereo not shown) [TGX-221, 7-methyl-2-(4-morpholinyl)-9-[1-(phenylamino)ethyl]-4H-pyrido[1,2-a]pyrimidin-4-one], the half-maximal inhibitory concentration (IC50) on mTOR/GbL/Raptor (mTORC1) (4EBP1 as substrate for mTOR/GbL/raptor kinase, read-out: biochemical IC50 mTOR) was found to be 10.9 µM; on mTOR/GbL/Raptor (mTORC1) (Table 5, read-out: Biochemical IC50 mTOR) it was 10.9 µM; in assay [1] it was 11.2 µM. For the same compound, on PI3Kβ, the “activity against PI3Kβ (in words)” value is reported as “active”.
